According to US6902740B2, “Pyrrolidonoethyl (meth)acrylate containing pressure sensitive adhesive compositions” (3M Innovative Properties Company, priority 2001, dated 2005):

Tests used:
[1] = Accelerated drug solubility method (seeded crystal growth) in pressure sensitive adhesive; format: physicochemical
[2] = Lerisetron solubility in PSA by absorption from receptor solution; format: physicochemical
Procedure: The solubility of the drug lerisetron in two PSAs was determined by measurement of absorption of the drug into the pressure sensitive adhesive in a heterogeneous system. Lerisetron was dissolved in a receptor solution of HBSS buffer/ethanol (85:15 w:w) to give an initial concentration of 7.94 mg/10 mL. The 100% saturation concentration of lerisetron in the receptor solution is 9.93 mg/10 mL. A defined weight of pressure sensitive adhesive was added to 10 mL of receptor solution and the receptor solution was stirred for 4 hours. After the 4 hours of stirring, the concentration of lerisetron in the receptor solution was measured using standard HPLC techniques. The difference in the initial amount of lerisetron and the final amount of lerisetron in the solution is assumed to have been absorbed by the pressure sensitive adhesive. A partition coefficient between the receptor solution and pressure sensitive adhesive can be calculated. The solubility of lerisetron in the pressure sensitive adhesive can subsequently be determined based on the partition coefficient and the previously determined solubility of lerisetron in the receptor solution.

[3] = in IOA homopolymer (comparison)

Q: Which “Drug Solubility in Pressure Sensitive Adhesive Copolymer” value [1, 3] does the source give for `CN1CCC(=C2c3ccccc3C=Cc3ccccc32)CC1` [Cyproheptadine] here?
A: Its value is 5-6 g drug/100 g pressure sensitive adhesive copolymer.

Q: And the “Drug Solubility in Pressure Sensitive Adhesive Copolymer” value ([1]; in IOA/PyEA 60/40)?
A: Its value is 10-15 g drug/100 g pressure sensitive adhesive copolymer.

Q: Which “Lerisetron solubility in pressure sensitive adhesive” value (from here on “Lerisetron solubility”) ([2]; in Isooctyl Acrylate/Pyrrolidonoethyl Acrylate/Polymethyl Methacrylate Macromonomer (59/39/2)) does the source give for `c1ccc(Cn2c(N3CCNCC3)nc3ccccc32)cc1` [Lerisetron, lerisetron] here?
A: The value was 7%.

Q: What about the “Lerisetron solubility” value ([2]; in Isooctyl Acrylate/Pyrrolidonoethyl Acrylate/Polymethyl Methacrylate Macromonomer (73/25/2)) of the same molecule?
A: The value was 3%.

Q: And the “Lerisetron solubility” value ([2]; in control Isooctyl Acrylate/N-vinyl pyrrolidone/Polymethyl Methacrylate Macromonomer (77/20/3))?
A: The value was “less than 1%”.

Q: Which results are given for `C[C@]12CC[C@H]3[C@@H](CCC4=CC(=O)CC[C@@]43C)[C@@H]1CC[C@@H]2O` [Testosterone]?
A: Drug Solubility in Pressure Sensitive Adhesive Copolymer [1, 3]: 0.5 g drug/100 g pressure sensitive adhesive copolymer; Drug Solubility in Pressure Sensitive Adhesive Copolymer ([1]; in IOA/PyEA 60/40): 4 g drug/100 g pressure sensitive adhesive copolymer
